This note sets out measurements from patent publication US20170249408A1, “Antiperspirant and Deodorant Compositions Comprising Malodor Reduction Compositions” (The Procter & Gamble Company, priority 2015, published 2017).

The assay in a line: Blocker Index (BI), expert graders, isovaleric acid malodorous swatch. Details: key: Blocker Index, expert-graded scale 0 to 3 (0 = clean swatch anchor). The source says:
Blocker materials suitable for use in consumer products of the present invention are chosen for their ability to decrease malodor, while not interfering with perception of a fragrance. Material selection is done by assigning two indices to a test sample material from two reference scales in order to rank odor strengths. The two reference scales are the Fragrance Fidelity Index (FFI) scale and the Blocker Index (BI) scale. The FFI ranks the ability of the test sample material to impart a perceivable odor which could cause interference when combined with another fragrance and the BI ranks the ability of the test sample material to reduce malodor perception. The two methods for assigning the indices to a test sample on the FFI and the BI reference scales are given below.
The first step in the method for assigning a BI to a test sample material on the BI reference scale is to create the BI reference swatches. […] Fabric swatches for this test are white knit polycotton (4 inch×4 inch) swatches from EMC ordered as PC 50/50. The supplier is instructed to strip the swatches first, stripping involves washing twice with a fragrance-free detergent and rinsing three times.
The BI scale contains one clean swatch with no malodor applied. […] These solutions are pipetted to the middle of the swatches. […] After drying for 30 minutes in a vented hood, the swatches are wrapped in aluminum foil to prevent odor contamination to the treated swatch. A clean untreated swatch is also included as the lowest anchor point of reference for malodor strength on the BI scale. The BI reference scale swatches should be used within 0.5 to 12 hours and discarded after 12 hours. The swatches are used as scale anchor points when graders evaluate a test sample(s) and are assigned a Blocker Index (BI) as show in Table 12.
The perfumer/expert grader is asked to rank order swatches according to a scale between 0 and 3.
To evaluate the BI, the test material is applied to a malodorous swatch to determine how well the test material blocks the malodor. […] After drying the malodorous swatch a known concentration of test material solution, between 1 ppm and 100 ppm is pipetted onto the malodorous swatch. […] It is sometimes necessary to evaluate several levels of the test material between about 1 and about 100 ppm to determine the BI.
At least two perfumers/expert graders are used to assign the BI to the test sample. […] The test sample swatch is assigned a BI at or between numbers on the BI in table.

[1] abbreviates: Conc 50 ppm of test material on isovaleric acid malodorous swatch.
[2] abbreviates: Conc 10 ppm of test material on isovaleric acid malodorous swatch.
Setting [3] is: test material Conc 10 ppm on isovaleric acid swatch.
Where [4] appears, read: test material Conc 50 ppm on isovaleric acid swatch.

Structures are written as SMILES.

Consider `CCCCCCCCCCCC(=O)OCC` [Material 391], for which, under setting [1], the BI was 2.2.
For the compound `O=C1CCC2CCCCC2O1` (stereo not shown) [3,4,4a,5,6,7,8,8a-octahydrochromen-2-one], the BI under setting [2] is given as 2.0 and the BI under setting [1] stood at 2.0.
Turning to `CC1CCC2(C(C)C)CC(C)OC2C1` (stereo not shown) [4,8-dimethyl-1-(methylethyl)-7-oxybiciclo[4.3.0]nonane], the BI is, setting by setting: under setting [3], 2.0; under setting [4], 2.2.
The compound `CCOC(=O)OC1C(C)CCC(C)C1C` (stereo not shown) [Material 1005] registered a BI under setting [1] of 2.6.
Compound `CCCCCCCCCCCO` [Undecanol] returned a BI under setting [1] of 2.3.
Same read-out and setting: with `C=CC(C)=CCC=C(C)C` [Material 524] the figure was 2.8.
Turning to `CCC(O)COC1CCCCC1C(C)(C)C` (stereo not shown) [Material 677], the BI by setting is: under setting [2], 2.3; under setting [1], 2.0.
On to `CCCCCCCCCCCCO` [Material 174], for which the BI under setting [1] is 2.3.
Regarding `CC(CCO)CCc1ccccc1` (stereo not shown) [Material 962], the BI runs as follows: under setting [2], 2.3; under setting [1], 1.7.
`C=C1CCC2OC2(C)CCC2C1CC2(C)C` (stereo not shown) [Material 1148]: under setting [1], the BI stood at 2.3.
`CC(C)(C)C1CCCCC1` [4-tert-butyl cyclohexane]: the BI came out at 2.0 under setting [2] and 2.0 under setting [1].
`CCC(=O)OC1CC2C3C=CCC3C1C2(C)C` (stereo not shown) [8,8-dimethyl-3a,4,5,6,7,7a-hexahydro-1H-4,7-methanoinden-6-yl propionate] yielded a BI under setting [3] of 1.5 and a BI under setting [4] of 2.2.
Compound `CCCCCCCCCCCCCCCC(=O)OC` [Material 109] came in with a BI under setting [2] of 2.0.
`CC1(C)C2CCC3(C2)C1C(=O)CCC3(C)C` (stereo not shown) [Material 1149]: the BI runs as follows: under setting [2], 1.5; under setting [1], 2.3.
In the case of `CC1(C)CCc2ccc(CCC=O)cc21` [Material 261, 3-(3,3-dimethyl-2,3-dihydro-1H-inden-5-yl)propanal], the BI is, setting by setting: under setting [3], 1.5; under setting [4], 2.7.
On to `CC(=O)OC1CC2CC1C1CC=CC21` (stereo not shown) [Material 281], for which the BI stood at 2.0 under setting [2] and 2.0 under setting [1].
Take `CC1(C)CCc2ccc(CCC=O)cc21` [Material 261]: the BI was found to be 1.8 under setting [2] and 1.3 under setting [1].
The matching figures for `COC(=O)OC1CC/C=C\CCC1` (stereo not shown) [Material 1139]: 2.0 and 2.7.
On to `CC(=O)OCCCCCCC(C)C` [Material 204], for which the BI under setting [2] is 2.0 and the BI under setting [1] amounted to 2.7.
